Experimental data taken from US9217150B2, “NRPS-PKS gene cluster and its manipulation and utility” (SINTEF TTO AS, priority 2008, dated 2015).

Test system: strain DSM 21069 (isolate MP28-13)
Experiment: Antibiotic resistance characteristics of strain DSM 21069
Format: cell-based, Streptomyces

| Molecule | Antibiotic resistance (antibiotic at 5 μg/ml) | Antibiotic resistance (antibiotic at 10 μg/ml) | Antibiotic resistance (antibiotic at 20 μg/ml) | Antibiotic resistance (antibiotic at 50 μg/ml) |
| --- | --- | --- | --- | --- |
| CN[C@@H]1[C@@H](O[C@H]2O[C@H](CO)[C@@H](N)[C@H](O)[C@H]2O)OC2C[C@@H](N)[C@@H](O[C@H]3[C@H](O)[C@@H](O)[C@H](N)C[C@@H]3N)OC2[C@@H]1O (some centres unmarked) [Apramycin] | sensitive | sensitive | sensitive | sensitive |
| CO[C@H]1/C=C/O[C@@]2(C)Oc3c(C)c(O)c4c(O)c(cc(O)c4c3C2=O)NC(=O)/C(C)=C\C=C\[C@H](C)[C@H](O)[C@@H](C)[C@@H](O)[C@@H](C)[C@H](OC(C)=O)[C@@H]1C [Rifamycin] | resistant | resistant | resistant | sensitive |
| [H]/N=C(/N)N[C@H]1[C@H](O)[C@@H](O)[C@H](O[C@@H]2O[C@@H](C)[C@](O)(C=O)[C@H]2O[C@@H]2O[C@@H](CO)[C@H](O)[C@@H](O)[C@@H]2NC)[C@@H](N/C(N)=N\[H])[C@@H]1O [Streptomycin] | resistant | resistant | resistant | resistant |
| C=C(NC(=O)C(=C)NC(=O)c1csc(C2=N[C@@H]3c4csc(n4)[C@H]4NC(=O)c5csc(n5)[C@H]([C@](C)(O)[C@@H](C)O)NC(=O)[C@H]5CSC(=N5)/C(=C/C)NC(=O)[C@H]([C@@H](C)O)NC(=O)c5csc(n5)[C@]3(CC2)NC(=O)[C@H](C)NC(=O)C(=C)NC(=O)[C@H](C)NC(=O)[C@H]([C@@H](C)CC)N[C@@H]2C=Cc3c([C@H](C)O)cc(nc3[C@H]2O)C(=O)O[C@@H]4C)n1)C(N)=O [Thiostrepton] | sensitive | sensitive | sensitive | sensitive |
| Neomycin | sensitive | sensitive | sensitive | sensitive |
